The record followed here is patent US10766883B2, “Aminopyrazoles as janus kinase inhibitors” (Merck Sharp & Dohme Corp., priority 2016, dated 2020).

SMILES strings stand for the structures.

One assay has as its target JAK1 (Homo sapiens (Human), UniProt P23458). The assay can be described thus: JAK biochemical HTRF enzyme assay, JAK1. Conditions: reference compound, mean +/- spread across assay runs. How it is done: (§1) The ability of compounds to inhibit the activity of JAK1, JAK2, JAK3, and Tyk2 was measured using a recombinant purified GST-tagged catalytic domain for each enzyme (InVitrogen/Life Technologies/ThermoFisher Scientific Inc., Waltham, Mass., USA; catalogue numbers: M4290(JAK1), M4290(JAK2), M4290(JAK3), M4290(Tyk2)) in an HTRF format biochemical assay.
(§2) Subsequent reagent additions employed an Agilent™ Bravo™ liquid handling system (Aligent Technologies, Santa Clara, Calif., USA). […] After equilibration, 2 μL of 10×ATP in 1× assay buffer was added to initiate the kinase reaction and the plates were shaken and then incubated at ambient temperature for 120 minutes. […] After normalization to untreated controls, the percent inhibition of the HTRF signal at each compound concentration was calculated. The plot of percent inhibition versus the log of compound concentration was fit with a 4-parameter dose response equation to calculate IC50 values.

The next assay deals with JAK2 (Homo sapiens (Human), UniProt O60674). The experiment in a line: JAK biochemical HTRF enzyme assay, JAK2. As to conditions: reference compound, mean +/- spread across assay runs. How it is done:
as §1, §2

The target of the next assay is JAK3 (Homo sapiens (Human), UniProt P52333). The assay can be described thus: JAK biochemical HTRF enzyme assay, JAK3. As to conditions: reference compound, mean +/- spread across assay runs. The method, then:
(§3) The ability of compounds to inhibit the activity of JAK1, JAK2, JAK3, and Tyk2 was measured using a recombinant purified GST-tagged catalytic domain for each enzyme (InVitrogen/Life Technologies/ThermoFisher Scientific Inc., Waltham, Mass., USA; catalogue numbers: M4290(JAK1), M4290(JAK2), M4290(JAK3), M4290(Tyk2)) in an HTRF format biochemical assay. The reactions employed a common peptide substrate, LCB-[…]-NH2 (Merck Sharp & Dohme, Kenilworth, N.J., USA).
(§4) The basic assay protocol is as follows: First, 250 nL of diluted compounds in DMSO were dispensed into the wells of a dry 384-well Black plate (GreinerFluotrac™ catalog number: 781076; Greiner Bio-One GmbH, Frickenhausen, Germany) using a Labcyte Echo® 555 acoustic dispenser (Clarcyte, Inc, Sunnyvale, Calif., USA). Subsequent reagent additions employed an Agilent™ Bravo™ liquid handling system (Aligent Technologies, Santa Clara, Calif., USA). […] After equilibration, 2 μL of 10×ATP in 1× assay buffer was added to initiate the kinase reaction and the plates were shaken and then incubated at ambient temperature for 120 minutes. […] HTRF signal=10,000*665 nm reading/615 nm reading. After normalization to untreated controls, the percent inhibition of the HTRF signal at each compound concentration was calculated. […]

The next assay concerns the target Tyk2 (Homo sapiens (Human), UniProt P29597). The experiment in a line: JAK biochemical HTRF enzyme assay, Tyk2. Conditions: reference compound, mean +/- spread across assay runs. How it is done:
as §3, §4

Assay [1] concerns IL-6R/JAK1/2/Stat3 pathway. The experiment in a line: IL6 CellSensor beta-lactamase reporter assay (SIE-bla ME-180 cells). In kind it is cell-based. As to conditions: Homo sapiens, ME-180; reference compound, mean +/- spread across assay runs; read-out: IL6 CellSensor assay IC50. The source says: (§5) Inhibition of the activity of JAK kinases (JAK1, JAK2, JAK3 and TYK2) in intact cells was quantified in antagonist mode using CellSensor® transcriptional reporter technology (Life Technologies/ThermoFisher Scientific Inc., Waltham, Mass., USA; https://www.thermofisher.com/us/en/home/industrial/pharma-biopharma drug-discovery-development/target-and-lead-identification-and-validation/pathway-biology/cellular-pathway-analysis/cellsensor-cell-lines.html), in three independent cell lines engineered to detect IL4, IL6 and EPO signaling. In brief, CellSensor® cell lines (see details below for each assay) carrying a stably integrated β-Lactamase reporter gene under control of specific cis-regulatory STAT elements responsive to the pathway being monitored were pre-treated with test compounds serially diluted in DMSO (see preparation and dosing of compounds and agonist cytokines section).
(§6) Incubation with compounds, cytokines and LiveBLAzer™ were carried out at 37° C. in a tissue culture incubator maintained at 90% humidity and 5% CO2.
Interleukin 6 (IL6)—JAK1/JAK2—STAT4 Pathway
CellSensor™ SIE-bla ME-180 cells carrying a stably integrated β-Lactamase reporter gene under control of the Sis-Inducible Element (SIE).
(§7) Each CellSensor® cell line was subsequently plated as per supplier's instructions (30,000 cells in 32 μL/well) and mixed with the compound. Following a 60 minute incubation, cells were subsequently stimulated by addition of 8 μL of cognate cytokine (EC80 dose of IL4, IL6 and EPO) and incubated for an additional 3 hours, before adding LiveBLAzer™-FRET B/G substrate.
(§8) The IL-6 assay identifies agents that inhibit the beta-lactamase reporter activity initiated through stimulation of the IL-6R/JAK1/2/Stat3 pathway with recombinant human IL-6. The EPO assay identifies agents that inhibit the beta-lactamase reporter activity initiated through stimulation of the EPO/Jak2/Stat5 pathway with human EPO. Inhibition of EPO signaling leads to an inability to recover from anemia of chronic disease. […] That is, it is desirable for the EPO/IL-6 IC50 ratios to be a relatively large number.

The test system of a further assay is EPO/Jak2/Stat5 pathway. The experiment in a line: EPO CellSensor beta-lactamase reporter assay (irf1-bla TF-1 cells). The class given is cell-based, human.
Description: as §5, §6
Erythropoietin (EPO)—JAK2—STAT5 Pathway
CellSensor irf1-bla TF-1 cells carry a stably integrated β-Lactamase reporter gene under control of the STAT5 Response Elements present in the Interferon Regulatory Factor I (IRF1) gene promoter.
as §7, §8

The subject of assay [2] is Interleukin 4 (IL4)—JAK1/JAK3—STAT6 Pathway. The assay can be described thus: IL4 CellSensor beta-lactamase reporter assay (STAT6-bla RA-1 cells). The class given is cell-based. Conditions: reference compound, mean +/- spread across assay runs.
Description: as §5, with “section). Following incubation with compounds, IL4, IL6, or EPO were added to each cognate cell line at a concentration equal to a dose necessary to achieve 80% of the maximal response (EC80).” for “section).”
as §6
Interleukin 4 (IL4)—JAK1/JAK3—STAT6 Pathway […]

Sequence of JAK3 (P52333 822-1111): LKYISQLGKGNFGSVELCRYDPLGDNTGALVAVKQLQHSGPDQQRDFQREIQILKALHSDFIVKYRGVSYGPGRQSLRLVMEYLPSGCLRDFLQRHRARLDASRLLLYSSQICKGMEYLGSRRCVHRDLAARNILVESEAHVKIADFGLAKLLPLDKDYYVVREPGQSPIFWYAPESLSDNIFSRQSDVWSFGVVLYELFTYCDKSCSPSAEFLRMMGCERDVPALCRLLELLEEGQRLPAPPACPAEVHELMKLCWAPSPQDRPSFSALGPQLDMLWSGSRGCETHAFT
Sequence of JAK2 (O60674 849-1124): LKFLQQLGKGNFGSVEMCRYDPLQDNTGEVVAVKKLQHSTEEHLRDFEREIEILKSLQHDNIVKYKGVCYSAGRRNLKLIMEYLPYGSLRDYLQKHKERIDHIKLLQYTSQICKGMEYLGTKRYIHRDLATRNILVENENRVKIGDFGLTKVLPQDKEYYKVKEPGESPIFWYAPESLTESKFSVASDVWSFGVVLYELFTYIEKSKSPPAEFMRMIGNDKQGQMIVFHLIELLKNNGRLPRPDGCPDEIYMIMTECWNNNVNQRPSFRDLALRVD
Sequence of JAK1 (P23458 875-1153): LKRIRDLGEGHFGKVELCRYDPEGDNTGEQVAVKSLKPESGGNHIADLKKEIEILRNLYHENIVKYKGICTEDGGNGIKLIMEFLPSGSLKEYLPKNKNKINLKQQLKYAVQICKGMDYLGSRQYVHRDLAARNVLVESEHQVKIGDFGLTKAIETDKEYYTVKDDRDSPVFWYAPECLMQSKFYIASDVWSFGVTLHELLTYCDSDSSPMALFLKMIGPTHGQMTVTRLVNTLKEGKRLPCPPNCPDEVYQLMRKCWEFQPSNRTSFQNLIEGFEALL
Sequence of Tyk2 (P29597 897-1176): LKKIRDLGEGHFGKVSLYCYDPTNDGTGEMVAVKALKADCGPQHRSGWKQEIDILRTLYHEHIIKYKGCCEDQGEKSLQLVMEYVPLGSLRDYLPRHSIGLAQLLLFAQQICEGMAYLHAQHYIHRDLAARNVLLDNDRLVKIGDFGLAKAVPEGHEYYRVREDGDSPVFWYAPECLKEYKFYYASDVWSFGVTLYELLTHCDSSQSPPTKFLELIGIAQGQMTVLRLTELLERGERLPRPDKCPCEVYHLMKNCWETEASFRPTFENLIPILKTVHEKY

In the case of `CS(=O)(=O)c1ccc(Nc2nn([C@H]3CCCC[C@@H]3C#N)c3cc[nH]c(=O)c23)cc1` [Reference Compound No. 2, (1S,2S)-2-(3-{[4-(methylsulfonyl)phenyl]amino}-4-oxo-4,5-dihydro-1H-pyrazolo[4,3-c]pyridin-1-yl)cyclohexanecarbonitrile, reference compound], the IC50 against JAK1 came to 0.17 nM; against JAK2 it was 1 nM; at JAK3 it was 21.9 nM; against Tyk2, 0.28 nM; in assay [1] it was 21 nM; in the assay with EPO/Jak2/Stat5 pathway (Homo sapiens, TF-1, reference compound, mean +/- spread across assay runs, read-out: EPO CellSensor assay IC50), 39.5 nM. Moreover, 11.1 nM corresponded to half-maximal inhibition in assay [2] (IC50). Besides, in the assay on EPO/Jak2/Stat5 pathway (across all three CellSensor assays), the “potency spread across the IL6, EPO and IL4 CellSensor assays” value is on record as “two to three”.
